{"source": "patent US9597436B2", "about": "“Advanced heart failure treatment material as myocardial/cardiovascular regeneration device” (Osaka University, priority 2012, dated 2017)", "key": {"[1]": {"test_system": "coculture of NHDF and HUVEC", "assay": "Internal regeneration factors under coculture of NHDF and HUVEC", "assay_type": "cell-based, human", "description": "The compound 1 is a low molecular […] having the non-PG skeleton, and TXA2 synthase inhibitory action as well as selective IP agonist action is integrated into the molecule."}, "[2]": {"test_system": "fibroblasts", "details": "cited from earlier work"}, "[3]": {"test_system": "acute hepatopathy induced by carbon tetrachloride", "details": "cited from earlier work"}}}
{"smiles": "O=C(O)COc1cccc2c1CCC=C2CCO/N=C(\\c1ccccc1)c1cccnc1", "note": "[Compound 1, (E)-[5-[2-[1-phenyl-1-(3-pyridyl)methylideneaminoxy]ethyl]-7,8-dihydronaphthalen-1-yloxy]acetic acid]", "values": [{"measurement": "internal regeneration factors (HGF, VEGF, EGF, IGF-1, SDF-1, G-CSF)", "setting": "[1]", "value": "indicates various types of internal regeneration factors"}, {"measurement": "migration, proliferation, and collagen production of fibroblasts", "setting": "[2]", "value": "suppresses"}, {"measurement": "phosphorylation of ERK1/2", "setting": "[2]; progressed due to pathology, by activation of cAMP/PKA", "value": "suppresses"}, {"measurement": "hepatocyte protection (anti-apoptotic and anti-necrosis action)", "setting": "[3]", "value": "exhibits hepatocyte protection effects"}, {"measurement": "increases in ALT and AST in blood", "setting": "[3]", "value": "suppresses"}]}
